Numbers after ± are expanded uncertainties.
Test: molar heat capacity at constant pressure
Settings: Liquid, metal-bellows calorimeter

F/C=C/C(F)(F)F [trans-1,3,3,3-tetrafluoropropene]
molar heat capacity at constant pressure (310 K, 2000 kPa): 165.36 ± 16 J/K/mol | molar heat capacity at constant pressure (310 K, 3000 kPa): 160.8 ± 16 J/K/mol | molar heat capacity at constant pressure (310 K, 4000 kPa): 157.38 ± 16 J/K/mol | molar heat capacity at constant pressure (310 K, 5000 kPa): 155.1 ± 16 J/K/mol | molar heat capacity at constant pressure (320 K, 2000 kPa): 168.78 ± 16 J/K/mol | molar heat capacity at constant pressure (320 K, 3000 kPa): 164.22 ± 16 J/K/mol | molar heat capacity at constant pressure (320 K, 4000 kPa): 160.8 ± 16 J/K/mol | molar heat capacity at constant pressure (320 K, 5000 kPa): 158.52 ± 16 J/K/mol | molar heat capacity at constant pressure (330 K, 2000 kPa): 175.62 ± 18 J/K/mol | molar heat capacity at constant pressure (330 K, 3000 kPa): 169.92 ± 16 J/K/mol | molar heat capacity at constant pressure (330 K, 4000 kPa): 166.5 ± 16 J/K/mol | molar heat capacity at constant pressure (330 K, 5000 kPa): 161.94 ± 16 J/K/mol | molar heat capacity at constant pressure (340 K, 2000 kPa): 188.17 ± 18 J/K/mol | molar heat capacity at constant pressure (340 K, 3000 kPa): 179.05 ± 18 J/K/mol | molar heat capacity at constant pressure (340 K, 4000 kPa): 169.92 ± 16 J/K/mol | molar heat capacity at constant pressure (340 K, 5000 kPa): 164.22 ± 16 J/K/mol | molar heat capacity at constant pressure (350 K, 2000 kPa): 206.42 ± 21 J/K/mol | molar heat capacity at constant pressure (350 K, 3000 kPa): 192.73 ± 18 J/K/mol | molar heat capacity at constant pressure (350 K, 4000 kPa): 182.47 ± 18 J/K/mol | molar heat capacity at constant pressure (350 K, 5000 kPa): 174.48 ± 18 J/K/mol | molar heat capacity at constant pressure (360 K, 3000 kPa): 214.4 ± 21 J/K/mol | molar heat capacity at constant pressure (360 K, 4000 kPa): 195.01 ± 21 J/K/mol | molar heat capacity at constant pressure (360 K, 5000 kPa): 183.61 ± 18 J/K/mol | molar heat capacity at constant pressure (370 K, 3000 kPa): 272.56 ± 27 J/K/mol | molar heat capacity at constant pressure (370 K, 4000 kPa): 224.66 ± 23 J/K/mol | molar heat capacity at constant pressure (370 K, 5000 kPa): 204.13 ± 21 J/K/mol

Source: the NIST ThermoML archive (doi:10.1021/je900799e)
